Experimental data taken from patent US6737383B1, “Herbicidal oxadiazolidines” (priority 1999, dated 2004).

Key:
[1] = tested on: bamyardgrass; assay: Test B flood test barnyardgrass; format: in vivo, Echinochloa crus-galli
Summary of the method: (§1)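 Each value is a visual injury score relative to controls, with 10 meaning complete control and 0 no effect. Evaluation took place twelve to sixteen days after the 2-leaf-stage plants were treated and kept in the greenhouse.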

[2] = tested on: bedstraw; assay: Test B pre/postemergence bedstraw; format: in vivo, Galium aparine
Summary of the method: (§2)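 Test chemicals in a non-phytotoxic solvent mixture with surfactant were sprayed preemergence onto planted seeds and postemergence onto plants 2 to 18 cm tall (1- to 4-leaf stage). After twelve to sixteen days in a greenhouse, injury was visually rated against untreated controls from 0 (no effect) to 10 (complete control).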

[3] = tested on: corn; assay: Test B pre/postemergence corn; format: in vivo, Zea mays
Summary of the method: as §2

[4] = tested on: morningglory; assay: Test B pre/postemergence morningglory; format: in vivo, Ipomoea hederacea
Summary of the method: as §2

[5] = tested on: soybean; assay: Test B pre/postemergence soybean; format: in vivo, Glycine max
Summary of the method: as §2

[6] = tested on: smallflower flatsedge; assay: Test B flood test smallflower flatsedge; format: in vivo, Cyperus difformis
Summary of the method: as §1

[7] = tested on: rice; assay: Test B flood test rice; format: in vivo, Oryza sativa
Summary of the method: as §1

[8] = tested on: crabgrass; assay: Test B pre/postemergence crabgrass; format: in vivo, Digitaria sanguinalis
Summary of the method: as §2

[9] = tested on: surinam grass; assay: Test B pre/postemergence surinam grass; format: in vivo, Brachiaria decumbens
Summary of the method: as §2

[10] = tested on: sugar beet; assay: Test B pre/postemergence sugar beet; format: in vivo, Beta vulgaris
Summary of the method: as §2

[11] = tested on: wild oat; assay: Test B pre/postemergence wild oat; format: in vivo, Avena fatua
Summary of the method: as §2

[12] = tested on: velvetleaf; assay: Test B pre/postemergence velvetleaf; format: in vivo, Abutilon theophrasti
Summary of the method: as §2

[13] = tested on: rape; assay: Test B pre/postemergence rape; format: in vivo, Brassica napus
Summary of the method: as §2

[14] = tested on: pigweed; assay: Test B pre/postemergence pigweed; format: in vivo, Amaranthus retroflexus
Summary of the method: as §2

[15] = tested on: duck salad; assay: Test B flood test duck salad; format: in vivo, Heteranthera limosa
Summary of the method: as §1

[16] = tested on: cocklebur; assay: Test B pre/postemergence cocklebur; format: in vivo, Xanthium strumarium
Summary of the method: as §2

[17] = Rate 62 g/ha, headed Pre-emergence (flood test species), scale 0 to 10 (0 no effect, 10 complete control)
[18] = Rate 125 g/ha, Pre-emergence, flood test species, scale 0 to 10 where 0 is no effect and 10 is complete control
[19] = Rate 250 g/ha, Pre-emergence, flood-test species, scale 0 to 10, 0 is no effect, 10 is complete control
[20] = Rate 500 g/ha, Pre-emergence, flood test species, scale 0 to 10 (0 no effect, 10 complete control)
[21] = Preemergence, Rate 62 g/ha, scale of 0 to 10 where 0 is no effect and 10 is complete control
[22] = Preemergence, Rate 250 g/ha, scale of 0 to 10 where 0 is no effect and 10 is complete control
[23] = Preemergence, Rate 500 g/ha, scale of 0 to 10 where 0 is no effect and 10 is complete control
[24] = Rate 62 g/ha, Postemergence, scale of 0 to 10 where 0 is no effect and 10 is complete control
[25] = Rate 125 g/ha, Postemergence, scale 0 to 10
[26] = Rate 125 g/ha, Preemergence, scale of 0 to 10 where 0 is no effect and 10 is complete control
[27] = Rate 500 g/ha, Postemergence, scale 0 to 10, 0 no effect, 10 complete control

CCCCc1ccc(N(C(=O)n2oc(=O)n(-c3ccccc3C)c2=O)C(C)C)cc1 [Compound 229]
Barnyardgrass plant response rating [1, 17]: 0 | Barnyardgrass plant response rating [1, 18]: 0 | Barnyardgrass plant response rating [1, 19]: 0 | Barnyardgrass plant response rating [1, 20]: 0 | Bedstraw plant response rating [2, 21]: 0 | Bedstraw plant response rating [2, 22]: 0 | Plant response rating, Bedstraw [2, 23]: 0 | Bedstraw plant response rating [2, 24]: 0 | Bedstraw plant response rating [2, 25]: 0 | Bedstraw plant response rating [2, 26]: 0 | Plant response rating (0 to 10; 0 is no effect, 10 is complete control), Bedstraw ([2]; Rate 250 g/ha, Postemergence): 0 | Bedstraw plant response rating [2, 27]: 0 | Corn plant response rating [3, 21]: 0 | Corn plant response rating [3, 22]: 0 | Plant response rating, Corn [3, 23]: 0 | Corn plant response rating [3, 24]: 0 | Corn plant response rating [3, 25]: 0 | Corn plant response rating [3, 26]: 0 | Plant response rating (0 to 10; 0 is no effect, 10 is complete control), Corn ([3]; Rate 250 g/ha, Postemergence): 0 | Corn plant response rating [3, 27]: 0 | Morningglory plant response rating [4, 21]: 0 | Morningglory plant response rating [4, 22]: 0 | Plant response rating, Morningglory [4, 23]: 0 | Morningglory plant response rating [4, 24]: 0 | Morningglory plant response rating [4, 25]: 0 | Morningglory plant response rating [4, 26]: 0 | Plant response rating (0 to 10; 0 is no effect, 10 is complete control), Morningglory ([4]; Rate 250 g/ha, Postemergence): 0 | Morningglory plant response rating [4, 27]: 0 | Soybean plant response rating [5, 21]: 0 | Soybean plant response rating [5, 22]: 0 | Plant response rating, Soybean [5, 23]: 0 | Soybean plant response rating [5, 24]: 0 | Soybean plant response rating [5, 25]: 0 | Soybean plant response rating [5, 26]: 0 | Plant response rating (0 to 10; 0 is no effect, 10 is complete control), Soybean ([5]; Rate 250 g/ha, Postemergence): 1 | Soybean plant response rating [5, 27]: 2 | S. Flatsedge plant response rating [6, 17]: 0 | S. Flatsedge plant response rating [6, 18]: 0 | S. Flatsedge plant response rating [6, 19]: 0 | S. Flatsedge plant response rating [6, 20]: 0 | Rice plant response rating [7, 17]: 0 | Rice plant response rating [7, 18]: 0 | Rice plant response rating [7, 19]: 0 | Rice plant response rating [7, 20]: 0 | Crabgrass plant response rating [8, 21]: 0 | Crabgrass plant response rating [8, 22]: 0 | Plant response rating, Crabgrass [8, 23]: 0 | Crabgrass plant response rating [8, 24]: 0 | Crabgrass plant response rating [8, 25]: 0 | Crabgrass plant response rating [8, 26]: 0 | Plant response rating (0 to 10; 0 is no effect, 10 is complete control), Crabgrass ([8]; Rate 250 g/ha, Postemergence): 0 | Crabgrass plant response rating [8, 27]: 0 | B. signalgrass plant response rating [9, 21]: 0 | B. signalgrass plant response rating ([9]; Preemergence, Rate 250 g/ha, scale 0 to 10, 0 is no effect, 10 is complete control): 0 | Plant response rating, B. signalgrass [9, 23]: 0 | B. signalgrass plant response rating [9, 24]: 0 | B. signalgrass plant response rating ([9]; Rate 125 g/ha, Postemergence, scale 0 (no effect) to 10 (complete control)): 0 | B. signalgrass plant response rating [9, 26]: 0 | Plant response rating (0 to 10; 0 is no effect, 10 is complete control), B. signalgrass ([9]; Rate 250 g/ha, Postemergence): 0 | B. signalgrass plant response rating [9, 27]: 0 | Sugarbeets plant response rating [10, 21]: 0 | Sugarbeets plant response rating [10, 22]: 0 | Plant response rating, Sugarbeets [10, 23]: 0 | Sugarbeets plant response rating [10, 24]: 0 | Sugarbeets plant response rating [10, 25]: 0 | Sugarbeets plant response rating [10, 26]: 0 | Plant response rating (0 to 10; 0 is no effect, 10 is complete control), Sugarbeets ([10]; Rate 250 g/ha, Postemergence): 0 | Sugarbeets plant response rating [10, 27]: 0 | Wild oats plant response rating [11, 21]: 0 | Wild oats plant response rating [11, 22]: 0 | Plant response rating, Wild oats [11, 23]: 0 | Wild oats plant response rating [11, 24]: 0 | Wild oats plant response rating [11, 25]: 0 | Wild oats plant response rating [11, 26]: 0 | Plant response rating (0 to 10; 0 is no effect, 10 is complete control), Wild oats ([11]; Rate 250 g/ha, Postemergence): 0 | Wild oats plant response rating [11, 27]: 0 | Velvetleaf plant response rating [12, 21]: 0 | Velvetleaf plant response rating [12, 22]: 0 | Plant response rating, Velvetleaf [12, 23]: 0 | Velvetleaf plant response rating [12, 24]: 0 | Velvetleaf plant response rating [12, 25]: 0 | Velvetleaf plant response rating [12, 26]: 0 | Plant response rating (0 to 10; 0 is no effect, 10 is complete control), Velvetleaf ([12]; Rate 250 g/ha, Postemergence): 0 | Velvetleaf plant response rating [12, 27]: 2 | Rape plant response rating [13, 21]: 0 | Rape plant response rating [13, 22]: 0 | Plant response rating, Rape [13, 23]: 0 | Rape plant response rating [13, 24]: 0 | Rape plant response rating [13, 25]: 0 | Rape plant response rating [13, 26]: 0 | Plant response rating (0 to 10; 0 is no effect, 10 is complete control), Rape ([13]; Rate 250 g/ha, Postemergence): 0 | Rape plant response rating [13, 27]: 0 | Redroot pigweed plant response rating [14, 21]: 0 | Redroot pigweed plant response rating [14, 22]: 0 | Plant response rating, Redroot pigweed [14, 23]: 0 | Redroot pigweed plant response rating [14, 24]: 0 | Redroot pigweed plant response rating [14, 25]: 0 | Redroot pigweed plant response rating [14, 26]: 0 | Plant response rating (0 to 10; 0 is no effect, 10 is complete control), Redroot pigweed ([14]; Rate 250 g/ha, Postemergence): 0 | Redroot pigweed plant response rating [14, 27]: 0 | Ducksalad plant response rating [15, 17]: 0 | Ducksalad plant response rating [15, 18]: 0 | Ducksalad plant response rating [15, 19]: 0 | Ducksalad plant response rating [15, 20]: 0 | Cocklebur plant response rating [16, 21]: 0 | Cocklebur plant response rating [16, 22]: 0 | Plant response rating, Cocklebur [16, 23]: 0 | Cocklebur plant response rating [16, 24]: 0 | Cocklebur plant response rating [16, 25]: 0 | Cocklebur plant response rating [16, 26]: 0 | Plant response rating (0 to 10; 0 is no effect, 10 is complete control), Cocklebur ([16]; Rate 250 g/ha, Postemergence): 0 | Cocklebur plant response rating [16, 27]: 0
